In one test the test system is HT-29SF^CD cells. In words: Transwell culture, 5mAZC exposure of cytidine deaminase overexpressing cells. The format is cell-based, human. The following applies: for Number of viable cells HT-29SF^CD: quintuplicate, Transwell. Here is the method: (§1) HT-29SF^CD cells are a subline of HT-29SF human colonic adenocarcinoma cells that were selected for overexpression of cytidine deaminase. HT-29SF cells were plated in the bottom compartment, and HT-29SF^CD cells in the top compartment of a “Transwell” culture dish (1,000 cells each). A semipermeable membrane separates the two compartments of the Transwell, such that any drug administered in the tissue culture media bathe both compartments equally. 5-mAZC was administered continuously for 72 hrs. at the indicated concentrations. The numbers in the x-axis indicate the concentration (in μM) at which 5mAZC was administered continuously for 72 hours. The numbers on the y-axis indicate the number of surviving cells. The circular (●) data points represent the dose response for the HT-29SF^CD cells. The square (▪) data points represent the dose response for the HT-29SF cells.
HT-29SF human adenocarcinoma cells naturally express a high level of cytidine deaminase (CD). HT-29SF^CD is a subline of the HT-29SF line that express even higher CD levels than normal (about 5.4 times the expression level of HT-29SF cells). In order to see whether cells that overexpress cytidine deaminase are more sensitive to 5mAZC than other cells, HT-29SF^CD cells were plated in the top compartment of a Transwell culture dish, while HT-29SF cells were placed in the bottom compartment (1000 cells each). A semipermeable membrane separated the two compartments of the Transwell, such that drugs administered in the tissue culture media bathe both compartments equally. 5mAZC was administered continuously for 72 hrs at concentrations ranging from 0 μM to 50 μM. The results of this experiment confirm the idea that cells that highly overexpress CD are sensitive to 5mAZC.
Based upon the results obtained in example 1 above, a dose of 50 μM 5mAZC was selected for more in-depth analysis. Two experiments were performed, in quintuplicate, in the same Transwell dishes, containing the HT-29SF cells and the HT-29SF^CD cells in compartments separated only by a membrane permeable to 5mAZC.

The test system of test [1] is HT-29SF^CD (cytidine deaminase producing)cells. In words: Human tumor xenograft model, HT-29SF^CD tumor (right scapular region). The following applies: 150 mg/kg twice daily intraperitoneal, 5 weeks, N=2. The format is in vivo, Balb/C nu/nu mice. Here is the method: (§2) One of these mice received twice daily intraperitoneal doses of 150 mg/kg of 5mAZC. The other mouse received saline only. This treatment continued for 5 weeks, at which time the animals were euthanized and the solid tumors were dissected free and weighed.

The test system of test [2] is HT-29SF cells. Kind of test: Transwell culture, 5mAZC exposure of parent cells. The format is cell-based, human. The note with it: quintuplicate. Here is the method:
as §1
HT-29SF human adenocarcinoma cells naturally express a high level of cytidine deaminase (CD). HT-29SF^CD is a subline of the HT-29SF line that express even higher CD levels than normal (about 5.4 times the expression level of HT-29SF cells). In order to see whether cells that overexpress cytidine deaminase are more sensitive to 5mAZC than other cells, HT-29SF^CD cells were plated in the top compartment of a Transwell culture dish, while HT-29SF cells were placed in the bottom compartment (1000 cells each). […]

Test [3] concerns HT-29SF (non cytidine deaminase producing)cells. In words: Human tumor xenograft model, HT-29SF tumor (left scapular region). Type of test: in vivo, Balb/C nu/nu mice. The following applies: 150 mg/kg twice daily intraperitoneal, 5 weeks, N=2. Here is the method: as §2
Test [4] deals with HT-29SF cells. Kind of test: HT-29SF subcutaneous xenograft, tumor volume on Day 29. Type of test: in vivo, BALB/c nude mice. Here is the method: In another experiment, thirty BALB/c nude mice received subcutaneous injections of 5×10^6 HT-29SF cells. Twelve of the animals received 600 mg/kg/day 5mAZC in the flank for 28 days. Eighteen animals received saline injections on the same schedule. On Day 29, the animals were sacrificed and the tumor volume was quantified by standard methods. The average tumor volume for the control group receiving saline was 509±292 mm . […] The results of Examples 2 and 3 show clearly that 5mAZC is activated in vitro and in vivo into molecular species exclusively toxic to tumor cells that overexpress cytidine deaminase.

Setting [5] is: Experiment 1, 50 μM 5mAZC, 1000 cells plated.

Structures are written as SMILES.

As to `Cc1cn([C@H]2C[C@H](N=[N+]=[N-])[C@@H](CO)O2)c(=O)nc1N` [5mAZC, 5-methyl-2′,3′-dideoxy-3′-azidocytidine], the “Number of viable cells HT-29SF^CD” value in the test on HT-29SF^CD cells (setting [5]) was found to be 33.8 ± 17.1; with HT-29SF^CD cells (second experiment (head prints Example 2), 50 μM 5mAZC), 45.4 ± 15.6. In addition, the “sensitivity of cells that highly overexpress CD to 5mAZC (number of surviving cells, FIG. 1)” value in the test with HT-29SF^CD cells (HT-29SF^CD cells, 0 μM to 50 μM continuously for 72 hrs) is recorded as “sensitive”. For the same molecule, the “tumor weight HT-29SF^CD+5mAZC” value in test [1] amounted to 0.22 g. The “Number of viable cells HT-29SF” value was 797 ± 68 in the test with HT-29SF cells [2] (setting [5]) and 867.2 ± 29.4 in the test with HT-29SF cells [2] (second experiment, 50 μM 5mAZC). In test [3], the “tumor weight HT-29SF+5mAZC” value came out at 1.02 ± 0.13 g. In the test on HT-29SF cells [4] (600 mg/kg/day for 28 days), the “average reduction in size (tumor volume vs saline control)” value is on record as 46%. Besides, in the test on HT-29SF cells [4] (600 mg/kg/day in the flank for 28 days, saline control 509±292), the average tumor volume was determined as 273±97 mm^3.

The record behind these values is US6432924B1, “Method of treating disorders characterized by overexpression of cytidine deaminase or deoxycytidine deaminase” (East Carolina University, priority 1993, dated 2002).
